Patent US6933290B2, “2-{N-(2-amino-3-(heteroaryl or aryl)propionyl)-aminoacyl}-amino}-alkylboronic acid derivatives” (Novartis AG, priority 2001, dated 2005)
Values joined by “and” are separate entries in the source; they are usually repeats but may differ in a detail not shown here. Equal entries are not always repeated.

Molecular target: T1, chymotrypsin-like activity of the 20S proteasome (Homo sapiens, UniProt P20618+P28074)
T1 construct: purified human placenta 20S proteasome; tissue Diabetes Forschungsinstitut, Düsseldorf, Germany; host or cells: human placenta
Assay: Inhibition of the chymotrypsin-like activity of the 20S proteasome (Suc-LLVY-AMC hydrolysis)
Type: biochemical
Settings: purified human placenta 20S proteasome, Suc-LLVY-AMC substrate, read-out: IC50 [μM] (results of one or two experiments)
Description: It is based on the hydrolysis of the fluorogenic peptide Suc-LLVY-AMC (Succinyl-leucine-leucine-vatine-tyrosine-7-amino-4-methyl-coumarin), which is cleaved exclusively at the Y-AMC bond by the 20S proteasome. Hydrolysis of this peptide is accompanied by an increase in fluorescence intensity (λex (excitation wavelength): 355 nm; μem (emission wavelength): 460 nm) due to release of the […] that accompanies diffusion apart of the hydrolysis product Suc-LLVY.
2 μl of a 1 mM solution of a test compound in DMSO (dimethylsulfoxide, 20 μM final concentration in the well) are preincubated for 60 min at room temperature in black 96-well microtiter plates together with a mixture of 1 μl purified human placenta 20S proteasome (Diabetes Forschungsinstitut, DÜsseldorf, Germany; about 100 ng proteasome, depending on the proteasome preparation) and 47 μl buffer-Ca (5 mM CaCl2, 20 mM Tris/HCl (Tris-(hydroxymethyl)-amino-methane hydrochloride) pH 8.0). 3 μl of a 2.67 mM solution of Suc-LLVY-AMC (Bachem, Switzerland) in DMSO (80 μM final concentration in the well) and 47 μl buffer-Ca are mixed and added. The resulting mixture is incubated for 3-24 h at 37° C. If desired, proteolysis of the substrate can be stopped by addition of 50 μl stop solution (100 mM monochloroacetic acid, 130 mM NaOH, 100 mM acetic acid, pH=4.3). The fluorescence is monitored with a FLUOROSKAN ASCENT™ microtiter plate reader.
For each measurement series two control experiments are carried out: • 1.) 0% value: 2 μl DMSO are used in the above described assay instead of 2 μl of a 1 mM solution of a test compound in DMSO and 48 μl buffer-Ca instead of a mixture of 47 μl buffer-Ca and 1 μl purified proteasome. • 2.) 100% value: in the above described assay 2 μl DMSO are used instead of 2 μl of a 1 mM solution of the test compound in DMSO. Calculation [formula]
The IC50 value is defined as that concentration of a compound at which the remaining activity is 50% compared to the […].

| Structure (SMILES) | IC50 |
| --- | --- |
| COc1ccc(C[C@H](Nc2cccc(-c3ccccc3)c2)C(=O)N[C@H](C(=O)N[C@@H](CC(C)C)B(O)O)C(C)C)cc1OC [Example 10, (R)-1-{(S)-2-[(S)-2-(Biphenyl-3-ylamino)-3-(3,4-dimethoxy-phenyl)-propionylamino]-3-methyl-butyrylamino}-3-methyl-butylboronic acid] | 0.0029 µM and 0.004 µM |
| COc1cc(C[C@H](Nc2cccc(-c3ccccc3)c2)C(=O)N[C@H](C(=O)N[C@@H](CC(C)C)B2O[C@@H]3C[C@@H]4C[C@@H](C4(C)C)[C@]3(C)O2)C(C)C)cc(OC)c1OC [Example 1, (S)-2-[(S)-2-(Biphenyl-3-ylamino)-3-(3,4,5-trimethoxy-phenyl)-propionylamino]-3-methyl-N-[(R)-3-methyl-1-((1S,2S,6R,8S)-2,9,9-trimethyl-3,5-dioxa-4-bora-tricyclo[6.1.1.0^2,6]dec-4-yl)-butyl]-butyramide] | 0.0046 µM and 0.0024 µM |
| COc1ccc(C[C@H](Nc2cccc(-c3ccccc3)c2)C(=O)N[C@H](C(=O)N[C@@H](CC(C)C)B2O[C@@H]3C[C@@H]4C[C@@H](C4(C)C)[C@]3(C)O2)C(C)C)cc1 [Example 7, (S)-2-[(S)-2-(Biphenyl-3-ylamino)-3-(4-methoxy-phenyl)-propionylamino]-3-methyl-N-[(R)-3-methyl-1-((1S,2S,6R,8S)-2,9,9-trimethyl-3,5-dioxa-4-bora-tricyclo[6.1.1.0^2,6]dec-4-yl)-butyl]-butyramide] | 0.0029 µM and 0.0032 µM |
| COc1cc(C[C@@H](Nc2cccc(-c3ccccc3)c2)C(=O)N[C@H](C(=O)N[C@@H](CC(C)C)B2O[C@@H]3C[C@@H]4C[C@@H](C4(C)C)[C@]3(C)O2)C(C)C)cc(OC)c1OC [Example 21, (S)-2-[(R)-2-(Biphenyl-3-ylamino)-3-(3,4,5-trimethoxy-phenyl)-propionylamino]-3-methyl-N-[(R)-3-methyl-1-((1S,2S,6R,8S)-2,9,9-trimethyl-3,5-dioxa-4-bora-tricyclo[6.1.1.0^2]dec-4-yl)-butyl]-butyramide] | 0.0015 µM |
| COc1ccc(C[C@H](Nc2cccc(-c3ccccc3)c2)C(=O)N[C@H](C(=O)N[C@@H](CC(C)C)B2O[C@@H]3C[C@@H]4C[C@@H](C4(C)C)[C@]3(C)O2)C(C)C)cc1OC [Example 9, (S)-2-[(S)-2-(Biphenyl-3-ylamino)-3-(3,4-dimethoxy-phenyl)-propionylamino]-3-methyl-N-[(R)-3-methyl-1-((1S,2S,6R,8S)-2,9,9-trimethyl-3,5-dioxa-4-bora-tricyclo[6.1.1.0^2,6]dec-4-yl)-butyl]-butyramide] | 0.0017 µM and 0.0022 µM |
| COc1ccc(C[C@H](Nc2cccc(-c3ccccc3)c2)C(=O)N[C@H](C(=O)N[C@@H](CC(C)C)B2O[C@@H]3C[C@@H]4C[C@@H](C4(C)C)[C@]3(C)O2)C(C)C)c(OC)c1OC [Example 15, (S)-2-[(S)-2-(Biphenyl-3-ylamino)-3-(2,3,4-trimethoxy-phenyl)-propionylamino]-3-methyl-N-[(R)-3-methyl-1-((1S,2S,6R,8S)-2,9,9-trimethyl-3,5-dioxa-4-bora-tricyclo[6.1.1.0^2,6]dec-4-yl)-butyl]-butyramide] | 0.0071 µM |
| COc1ccc(C[C@H](Nc2cccc(-c3ccccc3)c2)C(=O)N[C@H](C(=O)N[C@@H](CC(C)C)B(O)O)C(C)C)c(OC)c1OC [Example 16, (R)-1-{(S)-2-[(S)-2-(Biphenyl-3-ylamino)-3-(2,3,4-trimethoxy-phenyl)-propionylamino]-3-methyl-butyrylamino}-3-methyl-butylboronic acid] | 0.0059 µM |
| COc1ccc(C[C@H](Nc2cccc(-c3ccccc3)c2)C(=O)N[C@H](C(=O)N[C@@H](Cc2ccccc2)B(O)O)C(C)C)cc1 [Example 52, (R)-1-{(S)-2-[(S)-2-(Biphenyl-3-ylamino)-3-(4-methoxy-phenyl)-propionylamino]-3-methyl-butyrylamino}-2-phenyl-ethylboronic acid] | 0.005 µM |

Other lines, results leading:

| IC50 | Structure (SMILES) |
| --- | --- |
| 0.0026 µM | COc1ccc(C[C@H](Nc2cccc(-c3ccccc3)c2)C(=O)N[C@@H](CC(C)C)C(=O)N[C@@H](CC(C)C)B2O[C@@H]3C[C@@H]4C[C@@H](C4(C)C)[C@]3(C)O2)cc1OC [Example 33, (S)-2-[(S)-2-(Biphenyl-3-ylamino)-3-(3,4-dimethoxy-phenyl)-propionylamino]-4-methyl-pentanoic acid [(R)-3-methyl-1-((1S,2S,6R,8S)-2,9,9-trimethyl-3,5-dioxa-4-bora-tricyclo[6.1.1.0^2,6]dec-4-yl)-butyl]-amide] |
| 0.0019 µM | COc1ccc(C[C@H](Nc2cccc(-c3ccccc3)c2)C(=O)N[C@@H](C)C(=O)N[C@@H](CC(C)C)B2O[C@@H]3C[C@@H]4C[C@@H](C4(C)C)[C@]3(C)O2)c(OC)c1OC [Example 39, (S)-2-(Biphenyl-3-ylamino)-N-{(S)-1-[(R)-3-methyl-1-((1S,2S,6R,8S)-2,9,9-trimethyl-3,5-dioxa-4-bora-tricyclo[6.1.1.0^2,6]dec-4-yl)-butylcarbamoyl]-ethyl}-3-(2,3,4-trimethoxy-phenyl)-propionamide] |
| 0.0008 µM | COc1ccc(C[C@H](NC(=O)Cc2cccc(Oc3ccccc3)c2)C(=O)N[C@H](C(=O)N[C@@H](CC(C)C)B2O[C@@H]3C[C@@H]4C[C@@H](C4(C)C)[C@]3(C)O2)C(C)C)cc1OC [Example 25, (S)-2-{(S)-3-(3,4-Dimethoxy-phenyl)-2-[2-(3-phenoxy-phenyl)-acetylamino]-propionylamino}-3-methyl-N-[(R)-3-methyl-1-((1S,2S,6R,8S)-2,9,9-trimethyl-3,5-dioxa-4-bora-tricyclo[6.1.1.0^2,6]dec-4-yl)-butyl]-butyramide] |
| 0.0021 µM | COc1cc(C[C@H](Nc2cccc(-c3ccccc3)c2)C(=O)N[C@H](C(=O)NC(CC(C)C)B2OC(C)(C)C(C)(C)O2)C(C)C)cc(OC)c1OC (stereo partly drawn) [Example 23, (S)-2-[(S)-2-(Biphenyl-3-ylamino)-3-(3,4,5-trimethoxy-phenyl)-propionylamino]-3-methyl-N-[3-methyl-1-(4,4,5,5-tetramethyl-[1,3,2]dioxaborolan-2-yl)-butyl]-butyramide] |
| 0.0019 µM | COc1ccc(C[C@H](Nc2cccc(-c3ccccc3)c2)C(=O)N[C@@H](C)C(=O)N[C@@H](CC(C)C)B(O)O)cc1 [Example 42, (R)-1-{(S)-2-[(S)-2-(Biphenyl-3-ylamino)-3-(4-methoxy-phenyl)-propionylamino]-propionylamino}-3-methyl-butylboronic acid] |
| 0.0037 µM | COc1cc(C[C@H](Nc2cccc(-c3ccccc3)c2)C(=O)N[C@@H](CC(C)C)C(=O)N[C@@H](CC(C)C)B(O)O)cc(OC)c1OC [Example 32, (R)-1-{(S)-2-[(S)-2-(Biphenyl-3-ylamino)-3-(3,4,5-trimethoxy-phenyl)-propionylamino]-4-methyl-pentanoylamino}-3-methyl-butylboronic acid] |
| 0.0008 µM | COc1cc(C[C@H](NC(=O)Cc2cccc(Oc3ccccc3)c2)C(=O)N[C@H](C(=O)N[C@@H](CC(C)C)B(O)O)C(C)C)cc(OC)c1OC [Example 28, (R)-3-Methyl-1-{(S)-3-methyl-2-[(S)-2-[2-(3-phenoxy-phenyl)-acetylamino]-3-(3,4,5-trimethoxy-phenyl)-propionylamino]-butyrylamino}-butylboronic acid] |
| 0.001 µM | COc1ccc(C[C@H](NC(=O)Cc2cccc(Oc3ccccc3)c2)C(=O)N[C@H](C(=O)N[C@@H](CC(C)C)B(O)O)C(C)C)cc1OC [Example 26, (R)-1-((S)-2-{(S)-3-(3,4-Dimethoxy-phenyl)-2-[2-(3-phenoxy-phenyl)-acetylamino]-propionylamino}-3-methyl-butyrylamino)-3-methyl-butylboronic acid] |
| 0.0023 µM | COc1ccc(C[C@H](Nc2cccc(-c3ccccc3)c2)C(=O)N[C@@H](CC(C)C)C(=O)N[C@@H](CC(C)C)B2O[C@@H]3C[C@@H]4C[C@@H](C4(C)C)[C@]3(C)O2)cc1 [Example 35, (S)-2-[(S)-2-(Biphenyl-3-ylamino)-3-(4-methoxy-phenyl)-propionylamino]-4-methyl-pentanoic acid [(R)-3-methyl-1-((1S,2S,6R,8S)-2,9,9-trimethyl-3,5-dioxa-4-bora-tricyclo[6.1.1.0^2,6]dec-4-yl)-butyl]-amide] |
| 0.0017 µM | COc1cc(C[C@@H](Nc2cccc(-c3ccccc3)c2)C(=O)N[C@H](C(=O)N[C@@H](CC(C)C)B(O)O)C(C)C)cc(OC)c1OC [Example 22, (R)-1-{(S)-2-[(R)-2-(Biphenyl-3-ylamino)-3-(3,4,5-trimethoxy-phenyl)-propionylamino]-3-methyl-butyrylamino}-3-methyl-butylboronic acid] |
